Our source for the IC50 values is patent US20230210853A1 (Halia Therapeutics, Inc., priority 2020, published 2023).

The target of the test is T1, full-length recombinant human NEK7 (Homo sapiens, UniProt Q8TDX7).
T1 construct: full-length recombinant human NEK7; GST (N); purchased SignalChem N09-10G; host or cells: Sf9 insect cells (baculovirus)
Nature of the test: NEK7 enzymatic assay ([33P]-ATP, casein substrate). The following applies: recombinant human NEK7, casein substrate. It is filed as biochemical. The procedure, abridged: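 GST-tagged enzyme, baculovirus-expressed in Sf9 cells, was mixed with casein in 20 mM Hepes pH 7.5, 10 mM MgCl2, 1 mM EGTA, 0.02% Brij35, 2 mM DTT, 1% DMSO. Compounds (3-fold series, 10 μM–0.5 nM) were preincubated 20 min at RT, then [33P]-ATP was added for 2 h at RT. P81 filter-bound radioactivity was expressed as % of vehicle activity and fitted to IC50.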

T1 sequence (Q8TDX7 whole entry): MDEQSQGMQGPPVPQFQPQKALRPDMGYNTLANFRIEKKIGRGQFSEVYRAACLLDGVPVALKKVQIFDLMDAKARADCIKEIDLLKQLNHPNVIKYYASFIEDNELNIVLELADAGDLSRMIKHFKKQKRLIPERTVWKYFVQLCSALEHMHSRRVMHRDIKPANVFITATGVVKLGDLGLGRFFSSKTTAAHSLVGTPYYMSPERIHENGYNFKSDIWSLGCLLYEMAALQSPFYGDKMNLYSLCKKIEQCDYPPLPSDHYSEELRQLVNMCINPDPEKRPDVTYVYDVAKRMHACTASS

One may read the IC50 as the concentration needed to halve the response being measured. With `CCN1CCN(Cc2ccc(NC(=O)Nc3ccc(-c4nn(C5CC5)c5ncnc(N)c45)cc3F)cc2C(F)(F)F)CC1` [Id-7, 1-(4-(4-amino-t-cyclopropyl-1H-pyrazolo[3,4-d]pyrimidin-3-yl)-2-fluorophenyl)-3-(4-((4-ethylpiperazin-1-yl)methyl)-3-(trifluoromethyl)phenyl)urea], the 50% inhibitory concentration (IC50) (Table 2d) was greater than 1500 nM. Turning to `CC(C)(C)c1cc(NC(=O)Nc2ccc(-c3nn(C4COC4)c4ncnc(N)c34)cc2)on1` [Ia-2, 1-(4-(4-amino-1-(oxetan-3-yl)-1H-pyrazolo[3,4-d]pyrimidin-3-yl)phenyl)-3-(3-(tert-butyl)isoxazol-5-yl)urea], the IC50 (Table 2a) was 151 to 300 nM. For `Nc1ncnc2c1c(-c1ccc(NC(=O)Nc3ccc(CN4CCNCC45CC5)c(C(F)(F)F)c3)c(F)c1)cn2C1CC1` [Id-65, 1-(4-((4,7-diazaspiro[2,5]octan-4-yl)methyl)-3-(trifluoromethyl)phenyl)-3-(4-(4-amino-7-cyclopropyl-7H-pyrrolo[2,3-d]pyrimidin-5-yl)-2-fluorophenyl)urea], the IC50 (Table 2d) was less than 150 nM. As for `CC(C)(C)c1cc(NC(=O)Nc2ccc(Oc3ccnc4[nH]cc(Cl)c34)cc2F)n(-c2ccccc2)n1` [Ib-6, 1-(3-(tert-butyl)-1-phenyl-1H-pyrazol-5-yl)-3-(4-((3-chloro-1H-pyrrolo[2,3-b]pyridin-4-yl)oxy)-2-fluorophenyl)urea], where the note is “Table 2b”, the IC50 is 501 to 1500 nM. In the case of `CN1CCC(Cc2ccc(NC(=O)Nc3ccc(Oc4ccnc5[nH]cc(Cl)c45)cc3F)cc2C(F)(F)F)CC1` [Ie-19, 1-(4-((3-chloro-1H-pyrrolo[2,3-H]pyridin-4-yl)oxy)-2-fluorophenyl)-3-(4-((1-methylpiperidin-4-yl)methyl)-3-(trifluoromethyl)phenyl)urea], the concentration for half-maximal inhibition (IC50) (Table 2e) fell in the range of 501 to 1500 nM. Regarding `CC(C)(C)c1cc(NC(=O)Nc2ccc(-c3nn(C4CCS(=O)(=O)C4)c4ncnc(N)c34)cc2F)on1` (centres unmarked) [Ia-18, 1-(4-(4-amino-1-(1,1-dioxdotetrahydrothiophen-3-yl)-1H-pyrazolo[3,4-d]pyrimidin-3-yl)-2-fluorophenyl)-3-(3-(tert-butyl)isoxazol-5-yl)urea], the IC50 (Table 2a) lay within 151 to 300 nM. Take `CN1CCN(c2cc(NC(=O)Nc3ccc(Oc4ccnc5[nH]cc(Cl)c45)cc3F)cc(C(F)(F)F)c2)CC1` [Ie-6, 1-(4-((3-chloro-1H-pyrrolo[2,3-b]pyridin-4-yl)oxy)-2-fluorophenyl)-3-(3-(4-methylpiperazin-1-yl)-5-(trifluoromethyl)phenyl)urea]: the IC50 (Table 2e) was greater than 1500 nM. `Nc1ncnc2c1c(-c1ccc(NC(=O)Nc3ccc(CN4CCN(CCO)CC4)c(C(F)F)c3)c(F)c1)cn2C1CC1` [Id-71]: the IC50 (Table 2d) was less than 150 nM. Same read-out and setting: for `CN1CCN(Cc2ccc(NC(=O)Nc3ccc(-c4cn(C5CC5)c5ncnc(N)c45)cc3F)cc2F)CC1` [Id-35, 1-(4-(4-amino-7-cyclopropyl-7H-pyrrolo[2,3-d]pyrimidin-5-yl)-2-fluorophenyl)-3-(3-fluoro-4-((4-methylpiperazin-1-yl)methyl)phenyl)urea] the value was 301 to 500 nM.

For `CN1CC2CC1CN2Cc1ccc(NC(=O)Nc2ccc(-c3cn(C4CC4)c4ncnc(N)c34)cc2F)cc1C(F)(F)F` (centres unmarked) [Id-63], the IC50 (Table 2d) was less than 150 nM.

With `CN1CCN(Cc2ccc(NC(=O)Nc3ccc(-c4cn(C5CC5)c5ncnc(N)c45)cc3Cl)cc2C(F)(F)F)CC1` [Id-34, 1-(4-(4-amino-7-cyclopropyl-7H-pyrrolo[2,3-d]pyrimidin-5-yl)-2-chlorophenyl)-3-(4-((4-methylpiperazin-1-yl)methyl)-3-(trifluoromethyl)phenyl)urea], where the note is “Table 2d”, the IC50 lay within 151 to 300 nM.
